Experiment [1] relates to infiltrated tobacco cells. Description: Western blot of infiltrated tobacco plants. To be noted: infiltrated tobacco leaf tissue. The format is cell-based, Nicotiana tabacum. Here is the method: Samples of the infiltrated tobacco plants were assayed via Western blotting. Leaf punches were collected and subjected to bead-milling. About 100-200 mg of leaf material was mixed with 2 BBs (Daisy; Rogers, Ark.) and […] of PBST for 3 minutes in a Kleco™ bead mill. The samples were then spun down in a centrifuge at 14,000× g at 4° C. The supernatant was removed and either analyzed directly via Western blot or immunoprecipitated. The immunoprecipitations were performed using the Pierce Direct IP Kit™ (Thermo Scientific; Rockford, Ill.) following the manufacturer's protocol. Approximately, 50 μg of anti-YFP or anti-GFP was bound to the resin. The samples were incubated with the resin overnight at 4° C. Next, the samples were washed and eluted the following morning and prepped for analysis by combining equal volumes of 2×8M Urea sample buffer and then boiling the samples for 5 minutes. The boiled samples were run on a 4-12% SDS-Bis Tris gel in MOPS buffer for 40 minutes. The gel was then blotted using the Invitrogen iBlot™ (Life Technologies; Carlsbad, Calif.) following the manufacturer's protocol. The blotted membrane was blocked for 10 minutes using 5% non-fat dry milk in PBS-Tween® solution. The membrane was probed with the primary antibody (monoclonal anti-GFP or anti-YFP in rabbit) used at a 1:1000 dilution in the 5% non-fat dry milk in PBS-Tween® solution for 1 hour. Next, the membrane was rinsed three times for five minutes with PBS-Tween® to remove all unbound primary antibody. The membrane was probed with a secondary monoclonal anti-rabbit in goat antibody (Life Technologies) used at a 1:1000 dilution, for 60 minutes. The membrane was washed as previously described and developed by adding Themo BCIP/NBT™ substrate. The colormetric substrate was allowed to develop for 5-10 minutes and then the blots were rinsed with water before being dried.
Background: A western blot detects proteins with antibodies after separation by electrophoresis.

In experiment [2] the test system is chloroplasts of the tobacco leaf tissues. Description: Tobacco transient assay, confocal microscopy of TraP-YFP/GFP. The format is cell-based, Nicotiana tabacum. To be noted: TraP-YFP or TraP-GFP fusion, Agrobacterium-infiltrated tobacco leaf tissue. The text has this: The above described chimeric chloroplast transit peptide sequences were initially tested via a transient in planta assay. Polynucleotide sequences which encode the TraP10 (SEQ ID NO:9), TraP11 (SEQ ID NO:10), TraP17 (SEQ ID NO:11), TraP18 (SEQ ID NO:12), TraP19 (SEQ ID NO:13), TraP26 (SEQ ID NO:14), TraP27 (SEQ ID NO:15), and TraP28 (SEQ ID NO:16), chimeric chloroplast transit peptide sequences were synthesized. A linker sequence (SEQ ID NO:17) was incorporated between the TraP sequence and the yfp coding sequence of TraP10 and TraP11. The resulting constructs contained two plant transcription units (PTU). The first PTU was comprised of the Arabidopsis thaliana Ubiquitin 10 promoter (AtUbi10 promoter; Callis, et al., (1990) J. Biol. Chem., 265: 12486-12493), TraP-yellow fluorescent protein fusion gene (TraP-YFP; US Patent App. 2007/0298412) or the TraP-green fluorescent protein fusion gene (TraP-GFP; Sheen et al., (1995) Plant J., 8(5): 777-84), and Agrobacterium tumefaciens ORF 23 3′ untranslated region (AtuORF23 3′UTR; U.S. Pat. No. 5,428,147). The second PTU was comprised of the Cassava Vein Mosaic Virus promoter (CsVMV promoter; Verdaguer et al., (1996) Plant Molecular Biology, 31: 1129-1139), phosphinothricin acetyl transferase (PAT; Wohlleben et al., (1988) Gene, 70: 25-37) or DSM-II (International Patent App. 2008070845), and Agrobacterium tumefaciens ORF 1 3′ untranslated region (AtuORF1 3′UTR; Huang et al., (1990) J. Bacteriol., 172: 1814-1822). Construct pDAB101979 contains the TraP10 chimeric chloroplast transit peptide (FIG. 3). Construct pDAB101980 contains the TraP11 chimeric chloroplast transit peptide (FIG. 4). Construct pDAB107634 contains the TraP17 chimeric chloroplast transit peptide (FIG. 5). Construct pDAB107635 contains the TraP18 chimeric chloroplast transit peptide (FIG. 6). Construct pDAB107636 contains the TraP19 chimeric chloroplast transit peptide (FIG. 7). Construct pDAB109847 contains the TraP26 chimeric chloroplast transit peptide (FIG. 8). Construct pDAB109848 contains the TraP27 chimeric chloroplast transit peptide (FIG. 9). Construct pDAB109849 contains the TraP28 chimeric chloroplast transit peptide (FIG. 10). […] The constructs were confirmed via restriction enzyme digestion and sequencing. Finally, the constructs were transformed into Agrobacterium tumefaciens and stored as glycerol stocks.
From an Agrobacterium glycerol stock, a loop full of frozen culture was inoculated into 2 ml of Yeast-extract Peptone Dextrose (100 μg/ml spectinomycin) in a 14 ml sterile tube. The inoculated media was incubated at 28° C. overnight with shaking at 200 rpm. The following day about 100 μl of the culture was used to inoculate 25 ml of YPD (100 μg/ml spectinomycin) in a 125 ml sterile tri-baffled flask, and incubated overnight at 28° C. overnight with shaking at 200 rpm. The following day the cultures were diluted to an OD600 of 0.5 in sterile ddH2O (pH 8.0). The diluted Agrobacterium strain was mixed with a second Agrobacterium strain containing the P19 helper protein at a ratio of 1:1. The culture were used for tobacco leaf infiltration via the Voinnet method. Voinnet O, Rivas S, Mestre P, and Baulcombe D, (2003) An enhanced transient expression system in plants based on suppression of gene silencing by the p19 protein of tomato bushy stunt virus. The Plant Journal, 33: 949-956. Infiltrated tobacco plants were placed in a Conviron™ set at 16 hr of light at 24° C. for at least three days until being assayed.
Agrobacterium-infiltrated tobacco leaves were severed from the plant, and placed into a petri-dish with water to prevent dehydration. The infiltrated tobacco leaves were observed under blue light excitation with long-pass filter glasses held in place using a Dark Reader Hand Lamp™ (Clare Chemical Research Co.; Dolores, Colo.) to identify undamaged areas of the leaf that were successfully expressing the YFP or GFP reporter proteins. […]

The test system of experiment [3] is dgt-28 transformed T1 Arabidopsis. The experiment can be described thus: Glyphosate tolerance of dgt-28 transformed T1 Arabidopsis. The conditions noted are these: dgt-28 linked with the chloroplast transit peptide, T1 Arabidopsis. The format is in vivo, Arabidopsis thaliana. Here is the method:
The Arabidopsis T1 transformants (from transformation with pDAB114286 or pDAB114287) were first selected from the background of untransformed seed using a glufosinate selection scheme. Three flats or 50,000 seed were analyzed for each T1 construct. The selected T1 plants were molecularly characterized (as described above) and events with a range of copy number were sprayed with various rates of commercial glyphosate.
Transgenic T1 Arabidopsis plants containing the dgt-28 transgene were sprayed with differing rates of glyphosate. Elevated rates were applied in this study to determine the relative levels of resistance (420, 840, 1,680 or 3,360 g ae/ha). The typical 1× field usage rate of glyphosate is 1120 g ae/ha. The response of these plants is presented in terms of % visual injury 2 weeks after treatment (WAT). The T1 Arabidopsis plants that were used in this study were of variable copy number for the dgt-28 transgene. The low copy dgt-28 T1 Arabidopsis plants were self-pollinated and used to produce T2 plants.
An arithmetic mean and standard deviation is presented for each construct used for Arabidopsis transformation. The range in individual response is also indicated in the last column for each rate and transformation. Wildtype, non-transformed Arabidopsis thaliana c.v. Columbia served as a glyphosate sensitive control.

In experiment [4] the test system is chloroplasts of the maize protoplasts. Description: Maize protoplast transient assay, microscopy of TraP-GFP. In kind it is cell-based, Zea mays c.v. B104. To be noted: TraP-GFP fusion, transfected maize protoplasts, microscopy after 12 hours. As for the experimental part: Seed of Zea mays c.v. B104 were surface sterilized by shaking vigorously in 50% Clorox™ (3% sodium hypochlorite), containing 2-3 drops of Tween® 20, for about 20 minutes. The seeds were rinsed thoroughly with sterile distilled water. The sterile seed were plated onto ½ MS medium in Phytatrays or similar type boxes, and allowed to grow in the dark (28° C.) for 12 to 20 days. A maize protoplast transient assay was used to obtain and transfect maize protoplasts from leaves of Zea mays c.v. B104. This maize protoplast assay is a modification of the system described by Yoo, S.-D., Cho, Y.-H., and Sheen, J., (2007), Arabidopsis Mesophyll Protoplasts: A Versitile Cell System for Transient Gene Expression Analysis, Nature Protocols, 2: 1565-1572. The solutions were prepared as described by Yoo et. al., (2007), with the exception that the mannitol concentration used for the following experiments was change to 0.6 M.
Transfection of 100 to 500 μl of protoplasts (1-5×10^5 cells) was completed by adding the protoplasts to a 2 ml microfuge tube containing about 40 μg of plasmid DNA, at room temperature. The volume of DNA was preferably kept to about 10% of the protoplast volume. The protoplasts and DNA were occasionally mixed during a 5 minute incubation period. An equal volume of PEG solution was slowly added to the protoplasts and DNA, 2 drops at a time with mixing in between the addition of the drops of PEG solution. The tubes were allowed to incubate for about 10 minutes with occasional gentle mixing. Next, 1 ml of W5+ solution was added and mixed by inverting the tube several times. The tube(s) were centrifuged for 5 minutes at 75× g at a temperature of 4° C. Finally, the supernatant was removed and the pellet was resuspended in 1 ml of WI solution and the protoplasts were placed into a small petri plate (35×10 mm) or into 6-well multiwell plates and incubated overnight in the dark at room temperature. Fluorescence of GFP was viewed by microscopy after 12 hours of incubation. The microscopy conditions similar to those previously described were used for the imaging.

This note sets out measurements from patent publication US10253323B2, “Chloroplast transit peptides” (priority 2015, dated 2019).

“Also recorded” adds a separate entry of the source.

Regarding “TraP28: synthetic chloroplast transit peptide, SEQ ID NO:8; tested fused to GFP (pDAB109849) (MAVQSNMICAGVANPFVSPNLSKTRASKSVYSVLGTRLNSSARGKKSAMPLIGNRVPVSA; TraP28)”, the “TraP processed and cleaved from the YFP or GFP protein” value (shortened to “TraP processed and cleaved”) in experiment [1] is “processed and cleaved from the YFP or GFP protein”. For the same molecule, the results for the “translocation of YFP or GFP fluorescent protein into chloroplasts” value in experiment [2] and in experiment [2] (listed as TraP28-GFP) were “accumulated within the chloroplasts; also recorded: successfully targeted GFP to tobacco chloroplasts” and “translocated into the chloroplasts”, respectively.

With “TraP26: synthetic chloroplast transit peptide, SEQ ID NO:6; tested fused to GFP (pDAB109847) (MAQVSMIPNAIQAPCSISLSKSQAGKSVRKVSLKPNQHAAWGLRRSGMRVGNPEVVVSAS; TraP26)”, in experiment [1], the “TraP processed and cleaved” value is “processed and cleaved from the YFP or GFP protein”. Also, the “translocation of YFP or GFP fluorescent protein into chloroplasts” value in experiment [2] was “accumulated within the chloroplasts; also recorded: successfully targeted GFP to tobacco chloroplasts”; in experiment [2] (listed as TraP26-GFP), “translocated into the chloroplasts”. The protection to glyphosate result in experiment [3] was “provide protection to glyphosate”.

B1: TraP10: chimeric chloroplast transit peptide, SEQ ID NO:1; N-terminus Brassica napus, C-terminus Glycine max EPSPS; tested fused to YFP (pDAB101979) (protein)
chain: MAQSSRICHGVQNPCVIISNLSKSNQNKSPFSVSLRPRLWGASKSRIPMHKNGSFMGNFNVGKGNSGVFKVS
modifications: TraP10
For B1, the “TraP processed and cleaved” value in experiment [1] was “processed and cleaved from the YFP or GFP protein”. Moreover, the “translocation of YFP or GFP fluorescent protein into chloroplasts” value is recorded as “accumulated within the chloroplasts; also recorded: successfully targeted YFP to tobacco chloroplasts” in experiment [2] and “translocated into the chloroplasts” in experiment [2] (listed as TraP10-YFP).

B2: TraP17: chimeric chloroplast transit peptide, SEQ ID NO:3; N-terminus Calystegia, C-terminus Chlamydamonas reinhardtii; tested fused to GFP (pDAB107634) (protein)
chain: MAQVNNMMQGLRLSPSNLSKPQTPLPSHSLLLGSNSLKNSVSASSVAPAPACSAPAGAGRRAVVVR
modifications: TraP17
Turning to B2, the “translocation of GFP fluorescent protein into chloroplasts” value was “did translocate YFP fluorescent proteins into the chroroplasts of maize; also recorded: accumulated within the chloroplasts; also recorded: successfully targeted GFP to maize chloroplasts” in experiment [4] and “translocated into the chloroplasts” in experiment [4] (listed as TraP17-GFP). Besides, the “translocation of YFP or GFP fluorescent protein into chloroplasts” value is given as “did not translocate YFP fluorescent proteins into the chloroplasts of tobacco” in experiment [2] and “did not translocate into the chloroplasts” in experiment [2] (listed as TraP17-GFP).
